According to patent US20230263822A1, “MODULATION OF FACTOR 11 EXPRESSION” (Ionis Pharmaceuticals, Inc., priority 2008, published 2023):
Strand notation (5' to 3'): a small letter for the sugar, then the base; units joined by * are phosphorothioate-linked, units joined directly phosphodiester-linked; [ ] holds rarer units or linkages, { } end groups; capitals alone tell only the bases. e = 2'-O-(2-methoxyethyl) (MOE); [5mC] = 5-methylcytosine; d = 2'-deoxy (DNA)

Key:
[1] = Tolerability in CD1 mice: kidney function, BUN, creatinine (Example 33); details: plasma, 50 mg/kg s.c. twice a week
Protocol: A control group of five mice was injected subcutaneously with PBS for 2 weeks. All experimental groups (i.e. ASO treated mice at 2, 4, 6 weeks) were compared to the control group (i.e. PBS, 2 weeks).
To evaluate the effect of ISIS oligonucleotides on kidney function, plasma concentrations of blood urea nitrogen (BUN) and creatinine were measured using an automated clinical chemistry analyzer (Hitachi Olympus AU400e, Melville, N.Y.).

blood coagulation = assay: PT and aPTT assay in cynomolgus monkeys (Example 45); type: in vivo; details: escalating dose regimen, platelet poor plasma
Protocol: (§1) Groups, each consisting of two male and three female monkeys, were injected subcutaneously with ISIS 416838, ISIS 416850, ISIS 416858, ISIS 416864, or ISIS 417002 in escalating doses. Antisense oligonucleotide was administered to the monkeys at 5 mg/kg three times per a week for week 1; 5 mg/kg twice per week for weeks 2 and 3; 10 mg/kg three times per week for week 4; 10 mg/kg twice per week for weeks 5 and 6; 25 mg/kg three times per week for week 7; and 25 mg/kg twice per week for weeks 8, 9, 10, 11, and 12. One control group, consisting of two male and three female monkeys, was injected subcutaneously with PBS according to the same dosing regimen. An additional experimental group, consisting of two male and three female monkeys, was injected subcutaneously with ISIS 416850 in a chronic, lower dose regimen. Antisense oligonucleotide was administered to the monkeys at 5 mg/kg three times per week for week 1; 5 mg/kg twice per week for week 2 and 3; 10 mg/kg three times per week for week 4; and 10 mg/kg twice per week for weeks 5 to 12. Body weights were measured weekly. Blood samples were collected 14 days and 5 days before the start of treatment and subsequently once per week for Factor 11 protein activity analysis in plasma, fibrinogen measurement, PT and aPTT measurements, bleeding times, and measurement of various hematologic factors. On day 85, the monkeys were euthanized by exsanguination while under deep anesthesia, and organs harvested for further analysis.
Blood samples were collected in tubes containing sodium citrate. PT and aPTT were determined in duplicate with an ACL 9000 coagulation instrument (Instrumentation Laboratory, Italy). The results were interpolated on a standard curve of serial dilutions citrated control monkey plasma tested to give a reported result in percent normal.
Prothrombin Time (PT) and Activated Partial Thromboplastin Time (aPTT) were measured using platelet poor plasma (PPP) from monkeys treated with ISIS oligonucleotides. PT and aPTT values are provided in Tables 116 and 117 and are reported as International Normalized Ratio (INR) values. INR values for PT and aPTT were determined by dividing the PT or aPTT value for each experimental group by the PT or aPTT for the PBS treated group. This ratio was then raised to the power of the International Sensitivity Index (ISI) of the tissue factor used. The ISIS oligonucleotide, ISIS 416850, given with the chronic dose regimen is distinguished from the other oligonucleotides with an asterisk (*).

[2] = Bleeding assay, Surgicutt Jr. device (Example 45); type: in vivo, cynomolgus monkeys; set-up: unit not given here; details: escalating dose regimen
Protocol: as §1
On different days during the treatment period, bleeding assay was performed using a Surgicutt Jr. device (ITC, New Jersey). Monkeys were placed in monkey chair with their arm placed in a steady support. The arm was lightly shaved and a sphygmomanometer was placed on the upper arm. The cuff of the sphygmomanometer was inflated to 40 mm Hg and this pressure was maintained throughout the procedure. The area on the upper arm to be incised was cleansed with an antiseptic swab and the Surgicutt Jr device was used to make an incision over the lateral aspect, volar surface of the forearm, parallel to and 5 cm below the antecubital crease. At the exact moment the incision was made, a stopwatch was started. Every 30 seconds, blood from the incision was blotted out using a blotting paper without directly touching the incision, so that formation of the platelet plug was not disturbed. Blood was blotted out every 30 seconds until blood no longer stained the paper. The stopwatch was then stopped and the bleeding time determined. The sphygmomanometer was removed from the animal's arm, the incision site was antiseptically swabbed and a wound closure strip applied. The ISIS oligonucleotide, ISIS 416850, given with the chronic dose regimen is distinguished from the other oligonucleotides with an asterisk (*).

[3] = Tolerability in Sprague-Dawley rats: body weight and organ weight (Example 44); type: in vivo; details: 50 mg/kg s.c. twice per week for 6 weeks

ISIS 416864: MOE gapmer, nucleobases 1275 to 1318 of SEQ ID NO: 1 (Table 8) (antisense GGCAGCGGACGGCATTGGTG; MOE gapmer, wing and gap sizes not given here)
BUN ([1]; 2 weeks): 22 mg/dL | Creatinine ([1]; 2 weeks): 0.11 mg/dL | BUN ([1]; 4 weeks): 31 mg/dL | Creatinine ([1]; 4 weeks): 0.22 mg/dL | BUN ([1]; 6 weeks): 28 mg/dL | Creatinine ([1]; 6 weeks): 0.16 mg/dL | PT ratio (INR) (blood coagulation; day 8): 1.02 | aPTT ratio (INR) (blood coagulation; day 8): 1.05 | PT ratio (INR) (blood coagulation; day 15): 1.07 | aPTT ratio (INR) (blood coagulation; day 15): 1.03 | PT ratio (INR) (blood coagulation; day 22): 1.03 | aPTT ratio (INR) (blood coagulation; day 22): 1.11 | PT ratio (INR) (blood coagulation; day 29): 1.06 | aPTT ratio (INR) (blood coagulation; day 29): 1.13 | PT ratio (INR) (blood coagulation; day 36): 1.06 | aPTT ratio (INR) (blood coagulation; day 36): 1.19 | PT ratio (INR) (blood coagulation; day 43): 1.04 | aPTT ratio (INR) (blood coagulation; day 43): 1.07 | PT ratio (INR) (blood coagulation; day 50): 1.01 | aPTT ratio (INR) (blood coagulation; day 50): 1.26 | PT ratio (INR) (blood coagulation; day 57): 1.08 | aPTT ratio (INR) (blood coagulation; day 57): 1.19 | PT ratio (INR) (blood coagulation; day 64): 1.10 | aPTT ratio (INR) (blood coagulation; day 64): 1.12 | PT ratio (INR) (blood coagulation; day 71): 1.07 | aPTT ratio (INR) (blood coagulation; day 71): 1.18 | PT ratio (INR) (blood coagulation; day 78): 1.08 | aPTT ratio (INR) (blood coagulation; day 78): 1.18 | PT ratio (INR) (blood coagulation; day 85): 1.13 | aPTT ratio (INR) (blood coagulation; day 85): 1.25 | PT ratio (INR) (blood coagulation; day −5): 1.00 | aPTT ratio (INR) (blood coagulation; day −5): 1.00 | PT ratio (INR) (blood coagulation; day −14): 1.00 | aPTT ratio (INR) (blood coagulation; day −14): 1.00 | bleeding time ([2]; day 15): 153 | bleeding time ([2]; day 22): 133 | bleeding time ([2]; day 36): 205 | bleeding time ([2]; day 43): 146 | bleeding time ([2]; day 57): 216 | bleeding time ([2]; day 64): 218 | bleeding time ([2]; day 78): 170 | bleeding time ([2]; day 85): 203 | bleeding time ([2]; day −5): 111 | bleeding time ([2]; day −14): 166

ISIS 417002: MOE gapmer, nucleobases 1275 to 1318 of SEQ ID NO: 1 (Table 8) (antisense GGTGCACAGTTTCTGGCAGG; MOE gapmer, wing and gap sizes not given here)
BUN ([1]; 2 weeks): 19 mg/dL | Creatinine ([1]; 2 weeks): 0.06 mg/dL | BUN ([1]; 4 weeks): 23 mg/dL | Creatinine ([1]; 4 weeks): 0.16 mg/dL | BUN ([1]; 6 weeks): 19 mg/dL | Creatinine ([1]; 6 weeks): 0.10 mg/dL | PT ratio (INR) (blood coagulation; day 8): 1.02 | aPTT ratio (INR) (blood coagulation; day 8): 1.05 | PT ratio (INR) (blood coagulation; day 15): 1.04 | aPTT ratio (INR) (blood coagulation; day 15): 1.03 | PT ratio (INR) (blood coagulation; day 22): 1.04 | aPTT ratio (INR) (blood coagulation; day 22): 1.16 | PT ratio (INR) (blood coagulation; day 29): 1.01 | aPTT ratio (INR) (blood coagulation; day 29): 1.11 | PT ratio (INR) (blood coagulation; day 36): 1.05 | aPTT ratio (INR) (blood coagulation; day 36): 1.18 | PT ratio (INR) (blood coagulation; day 43): 1.03 | aPTT ratio (INR) (blood coagulation; day 43): 1.06 | PT ratio (INR) (blood coagulation; day 50): 0.99 | aPTT ratio (INR) (blood coagulation; day 50): 1.18 | PT ratio (INR) (blood coagulation; day 57): 1.03 | aPTT ratio (INR) (blood coagulation; day 57): 1.22 | PT ratio (INR) (blood coagulation; day 64): 1.03 | aPTT ratio (INR) (blood coagulation; day 64): 1.11 | PT ratio (INR) (blood coagulation; day 71): 0.99 | aPTT ratio (INR) (blood coagulation; day 71): 1.16 | PT ratio (INR) (blood coagulation; day 78): 1.02 | aPTT ratio (INR) (blood coagulation; day 78): 1.18 | PT ratio (INR) (blood coagulation; day 85): 1.02 | aPTT ratio (INR) (blood coagulation; day 85): 1.20 | PT ratio (INR) (blood coagulation; day −5): 1.00 | aPTT ratio (INR) (blood coagulation; day −5): 1.00 | PT ratio (INR) (blood coagulation; day −14): 1.00 | aPTT ratio (INR) (blood coagulation; day −14): 1.00 | bleeding time ([2]; day 15): 174 | bleeding time ([2]; day 22): 194 | bleeding time ([2]; day 36): 186 | bleeding time ([2]; day 43): 120 | bleeding time ([2]; day 57): 206 | bleeding time ([2]; day 64): 146 | bleeding time ([2]; day 78): 163 | bleeding time ([2]; day 85): 182 | bleeding time ([2]; day −5): 175 | bleeding time ([2]; day −14): 185

ISIS 449707: 3-8-3, 4-8-4, 2-10-2, 3-10-3 or 4-10-4 MOE microwalk gapmer (Table 46) (antisense e[5mC]*eA*e[5mC]*eA*dG*dT*dT*dT*d[5mC]*dT*dG*dG*e[5mC]*eA*eG*eG)
body weight [3]: 352 g | Change in Kidney weight ([3]; end of study): +80% | Change in Liver weight ([3]; end of study): +41% | Change in Spleen weight ([3]; end of study): +400%
